# Measured values: patent US8114590B2, “Diagnosis and treatment of chronic lymphocytic leukemia (CLL)” (The Regents of the University of California, priority 2005, dated 2012)
# Assays:
# CLL-PBMC [1] = conditions: literature (refs 8, 9, 13); cited from earlier work
# monocytes or macrophages = conditions: 30 μM, literature (ref 25); cited from earlier work
# normal-PBMC = conditions: 10, 30 and 100 μM, 72 h, normal subjects n=6
# Method: (§1) Apoptosis: PBMC (1 million cells/ml) from B-CLL patients or normal subjects were cultured in RPMI media supplemented with 10% FBS, L-glutamine and penicillin/streptomycin at 37° C. in 5% CO2 and treated with either vehicle or the PDE7 inhibitor BRL-50481 for 72 h. Apoptosis was assessed by flow cytometry as the percentage of cells stained with Annexin V and Propidium Iodide (PI) and analyzed by FACScan using CELLQuest software (Becton-Dickinson Immunocytometry System) (18).
# (§2) PBMC from CLL patients (n=10) and normal subjects (n=6) were grown in the absence or presence of BRL-50481 (10 μM, 30 μM and 100 μM) for 72 h.
# CLL-PBMC [2] = conditions: 72 h
# Method: as §1, §2
# CD8+ T-lymphocytes = conditions: 30 μM, literature (ref 25); cited from earlier work
Structure (SMILES),induction of apoptosis in CLL-PBMC (CLL-PBMC [1]),effect on TNFα release in monocytes or macrophages (monocytes or macrophages),induction of apoptosis in PBMC from normal subjects (normal-PBMC),"dose dependence of apoptosis induction in CLL-PBMC (CLL-PBMC [2]; 10 μM, 30 μM and 100 μM)","increase in apoptosis in CLL-PBMC (CLL-PBMC [2]; ≧30 uM, CLL patients n=10, relative to vehicle control)",inhibition of IL-5-promoted proliferation of CD8+ T-lymphocytes (CD8+ T-lymphocytes)
CN(C(=O)CCCOc1ccc2[nH]c(=O)ccc2c1)C1CCCCC1 [cilostamide],does not induce apoptosis,–,–,–,–,–
Cn1c(=O)c2[nH]cnc2n(C)c1=O [theophylline],induces apoptosis,–,–,–,–,–
"Cc1ccc([N+](=O)[O-])cc1S(=O)(=O)N(C)C [BRL-50481, 3-(N,N-dimethylsulfonamido)-4-methyl-nitrobenzene]",–,little effect,not in PBMC from normal subjects,consistently and dose-dependently induced apoptosis,20-40%,failed to inhibit
